Experimental data as given in patent US12649733B2, “3,6-diamino-pyridazin-3-yl derivatives, pharmaceutical compositions containing them and their uses as pro-apoptotic agents” (LES LABORATOIRES SERVIER, priority 2019, dated 2026).

Experiments:
[1] = molecular target: T1, BCLXL (Homo sapiens, UniProt Q07817, V10N/V9A); assay: AlphaLISA assay (BIM peptide displacement); type: binding; conditions: 20 pM protein, 1 nM peptide
In short: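 Competitive displacement of fluorescein-labelled BIM peptide (1 nM) from biotinylated GST-BCL-XL(2-209) (20 pM) in 10 mM HEPES, 150 mM NaCl, 0.05% Tween 20, pH 7.4, 4% DMSO; 11-point dilutions. Overnight at 23° C with acceptor beads, then donor beads 2 h; Alpha signal at 615 nm.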

[2] = molecular target: T2, Bcl-xL protein (Homo sapiens, UniProt Q07817, N197C); assay: Fluorescence quenching assay (PUMA peptide displacement); type: binding; conditions: 1 nM protein, 400 nM peptide, 2 hours at 23° C.; KI determined from IC50
T2 construct: (2-197)[N197C]; His-His (two His8 stretches joined by a Gly/Ala/Ser/Thr linker)
In short: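 Displacement of a TQ5WS-quencher-labelled PUMA peptide (400 nM) from Cy5-labelled His-tagged Bcl-xL 2-197 N197C (1 nM) raises fluorescence. An 11-point compound dilution was incubated 2 h at 23 °C in HEPES 10 mM, NaCl 150 mM, 0.05% Tween 20, pH 7.4, 5% DMSO. Fluorescence was read at Ex 620/Em 680 nm, and KI was derived from IC50.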

[3] = system: MOLT-4 cells; assay: MOLT-4 cell viability, MTT assay; type: cell-based; conditions: Homo sapiens, MOLT-4, 48 h, 48 h exposure
In short: (§1)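 Cells grown in RPMI 1640 with 10% heat-inactivated FBS at 37° C, 5% CO2, exposed 48 h to nine 3.16-fold serial compound dilutions in triplicate. MTT added for 4 h, SDS/HCl solubilisation overnight, absorbance at 540 nm; IC50 by four-parameter fit.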

[4] = molecular target: T1, BCLXL; assay: Fluorescence polarisation assay (PUMA-based probe displacement); type: binding; further: 20 nM protein, 10 nM fluorescent probe
[5] = system: H146 cells; assay: H146 cell viability, MTT assay; type: cell-based; conditions: Homo sapiens, NCI-H146, 48 h, 48 h exposure
In short: as §1

T1 sequence (Q07817 with tags, fused parts or gaps V9A/V10N): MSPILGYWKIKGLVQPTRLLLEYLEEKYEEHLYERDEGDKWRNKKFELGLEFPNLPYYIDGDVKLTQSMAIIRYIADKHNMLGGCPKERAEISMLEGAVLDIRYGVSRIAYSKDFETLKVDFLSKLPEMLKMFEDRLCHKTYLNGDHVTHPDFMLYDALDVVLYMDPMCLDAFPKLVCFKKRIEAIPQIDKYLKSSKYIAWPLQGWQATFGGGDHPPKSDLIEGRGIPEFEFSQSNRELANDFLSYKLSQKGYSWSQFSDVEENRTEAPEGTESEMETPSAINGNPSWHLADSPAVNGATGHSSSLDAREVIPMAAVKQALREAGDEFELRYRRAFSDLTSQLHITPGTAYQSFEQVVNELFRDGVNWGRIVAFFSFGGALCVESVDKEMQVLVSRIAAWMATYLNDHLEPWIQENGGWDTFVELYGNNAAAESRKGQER
T2 sequence (Q07817 2-197 N197C): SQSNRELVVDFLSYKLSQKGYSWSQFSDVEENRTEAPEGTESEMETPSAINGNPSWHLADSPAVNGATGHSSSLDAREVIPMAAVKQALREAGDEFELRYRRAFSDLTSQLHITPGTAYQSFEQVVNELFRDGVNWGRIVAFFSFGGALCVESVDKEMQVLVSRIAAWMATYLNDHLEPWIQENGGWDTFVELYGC

IC50 [1] [nM]	Ki [2] [nM]	IC50 [3] [nM]	Ki [4] [nM]	IC50 [5] [nM]	Compound
0.011	0.0011	19.8	< 1	6.38	CNCC#Cc1ccc(OCCCc2sc(N(CCC(O)COC)c3cc(C)c(Nc4nc5ccccc5s4)nn3)nc2C(=O)O)c(F)c1 (stereo not drawn) [Example 109, 2-[[6-(1,3-Benzothiazol-2-ylamino)-5-methyl-pyridazin-3-yl]-(3-hydroxy-4-methoxy-butyl)amino]-5-[3-[2-fluoro-4-[3-(methylamino)prop-1-ynyl]phenoxy]propyl]thiazole-4-carboxylic acid]
0.0076	0.0017	19.2	< 1	50.6	Cc1cc(N(CCCC(O)CN(C)CCN(C)C)c2nc(C(=O)O)c(CCCOc3ccc(C#CCN(C)C)cc3F)s2)nnc1Nc1nc2ccccc2s1 (stereo not drawn) [Example 124, 2-[[6-(1,3-Benzothiazol-2-ylamino)-5-methyl-pyridazin-3-yl]-[5-[2-(dimethylamino)ethyl-methyl-amino]-4-hydroxy-pentyl]amino]-5-[3-[4-[3-(dimethylamino)prop-1-ynyl]-2-fluoro-phenoxy]propyl]thiazole-4-carboxylic acid]
0.0053	0.001	0.783	< 1	1.91	Cc1cc(N(CCCCO)c2nc(C(=O)O)c(CCCOc3ccc(C#CCN(C)C)cc3F)s2)nnc1Nc1nc2ccccc2s1 [Example 134, 2-[[6-(1,3-Benzothiazol-2-ylamino)-5-methyl-pyridazin-3-yl]-(4-hydroxybutyl)amino]-5-[3-[4-[3-(dimethylamino)prop-1-ynyl]-2-fluoro-phenoxy]propyl]thiazole-4-carboxylic acid]
0.014	0.0039	430	< 1	14500	CNCC#Cc1ccc(OCCCc2sc(N(CCCC(O)C[N+](C)(C)C)c3cc(C)c(Nc4nc5ccccc5s4)nn3)nc2C(=O)[O-])c(F)c1 (stereo not drawn) [Example 144, 2-[[6-(1,3-Benzothiazol-2-ylamino)-5-methyl-pyridazin-3-yl]-[4-hydroxy-5-(trimethylammonio)pentyl]amino]-5-[3-[2-fluoro-4-[3-(methylamino)prop-1-ynyl]phenoxy]propyl]thiazole-4-carboxylate]
0.022	0.0012	668	< 1	971	CNCC#Cc1ccc(OCCCc2sc(N(CCCC(O)C[N+](C)(C)CCCS(=O)(=O)[O-])c3cc(C)c(Nc4nc5ccccc5s4)nn3)nc2C(=O)O)c(F)c1 (stereo not drawn) [Example 146, 3-[[5-[[6-(1,3-Benzothiazol-2-ylamino)-5-methyl-pyridazin-3-yl]-[4-carboxy-5-[3-[2-fluoro-4-[3-(methylamino)prop-1-ynyl]phenoxy]propyl]thiazol-2-yl]amino]-2-hydroxy-pentyl]-dimethyl-ammonio]propane-1-sulfonate]
0.013	0.0017	136	< 1	16.8	CNCC(O)CCCN(c1cc(C)c(Nc2nc3ccccc3s2)nn1)c1nc(C(=O)O)c(CCCOc2ccc(C#CCN(C)C)cc2F)s1 (stereo not drawn) [Example 150, 2-[[6-(1,3-Benzothiazol-2-ylamino)-5-methyl-pyridazin-3-yl]-[4-hydroxy-5-(methylamino)pentyl]amino]-5-[3-[4-[3-(dimethylamino)prop-1-ynyl]-2-fluoro-phenoxy]propyl]thiazole-4-carboxylic acid]
0.18	0.02	96.2	< 1	1040	C/C(=C\c1sc(N(C)c2cc(C)c(Nc3nc4ccccc4s3)nn2)nc1C(=O)O)COc1ccc(C#CCN(C)C)cc1F [Example 163, 2-({6-[(1,3-Benzothiazol-2-yl)amino]-5-methylpyridazin-3-yl}(methyl)amino)-5-[(1E)-3-{4-[3-(dimethylamino)prop-1-yn-1-yl]-2-fluorophenoxy}-2-methylprop-1-en-1-yl]-1,3-thiazole-4-carboxylic acid]
0.0071	0.0019	12.9	< 1	34.6	Cc1cc(N(C)c2nc(C(=O)O)c(CC(O)COc3ccc(C#CCN(C)C)cc3F)s2)nnc1Nc1nc2ccccc2s1 (stereo not drawn) [Example 164, 2-({6-[(1,3-benzothiazol-2-yl)amino]-5-methylpyridazin-3-yl}(methyl)amino)-5-(3-{4-[3-(dimethylamino)prop-1-yn-1-yl]-2-fluorophenoxy}-2-hydroxypropyl)-1,3-thiazole-4-carboxylic acid]
0.019	0.0059	430	< 1	211	Cc1cc(N(CCCCCN(C)C2CCNCC2)c2nc(C(=O)O)c(CCCOc3ccc(C#CCN(C)C)cc3F)s2)nnc1Nc1nc2ccccc2s1 [Example 165, 2-[[6-(1,3-Benzothiazol-2-ylamino)-5-methyl-pyridazin-3-yl]-[5-[methyl(4-piperidyl)amino]pentyl]amino]-5-[3-[4-[3-(dimethylamino)prop-1-ynyl]-2-fluoro-phenoxy]propyl]thiazole-4-carboxylic acid]
0.0092	0.0026	172	< 1	142	Cc1cc(N(CCCCCNCCN2CCOCC2)c2nc(C(=O)O)c(CCCOc3ccc(C#CCN(C)C)cc3F)s2)nnc1Nc1nc2ccccc2s1 [Example 166, 2-[[6-(1,3-Benzothiazol-2-ylamino)-5-methyl-pyridazin-3-yl]-[5-(2-morpholinoethylamino)pentyl]amino]-5-[3-[4-[3-(dimethylamino)prop-1-ynyl]-2-fluoro-phenoxy]propyl]thiazole-4-carboxylic acid]
0.013	0.0029	400	< 1	432	Cc1cc(N(CCCCCNCCN2CCN(C)CC2)c2nc(C(=O)O)c(CCCOc3ccc(C#CCN(C)C)cc3F)s2)nnc1Nc1nc2ccccc2s1 [Example 167, 2-[[6-(1,3-Benzothiazol-2-ylamino)-5-methyl-pyridazin-3-yl]-[5-[2-(4-methylpiperazin-1-yl)ethylamino]pentyl]amino]-5-[3-[4-[3-(dimethylamino)prop-1-ynyl]-2-fluoro-phenoxy]propyl]thiazole-4-carboxylic acid]
0.0099	0.0044	106	< 1	73.1	CNCCN(C)CC(O)CCCN(c1cc(C)c(Nc2nc3ccccc3s2)nn1)c1nc(C(=O)O)c(CCCOc2ccc(C#CCN(C)C)cc2F)s1 (stereo not drawn) [Example 169, 2-[[6-(1,3-Benzothiazol-2-ylamino)-5-methyl-pyridazin-3-yl]-[4-hydroxy-5-[methyl-[2-(methylamino)ethyl]amino]pentyl]amino]-5-[3-[4-[3-(dimethylamino)prop-1-ynyl]-2-fluoro-phenoxy]propyl]thiazole-4-carboxylic acid]
0.014	0.005	154	< 1	156	CCN(CC)CCNCC(O)CCCN(c1cc(C)c(Nc2nc3ccccc3s2)nn1)c1nc(C(=O)O)c(CCCOc2ccc(C#CCN(C)C)cc2F)s1 (stereo not drawn) [Example 170, 2-[[6-(1,3-Benzothiazol-2-ylamino)-5-methyl-pyridazin-3-yl]-[5-[2-(diethylamino)ethylamino]-4-hydroxy-pentyl]amino]-5-[3-[4-[3-(dimethylamino)prop-1-ynyl]-2-fluoro-phenoxy]propyl]thiazole-4-carboxylic acid]
0.013	0.0035	411	< 1	110	Cc1cc(N(CCCC(O)CN2CCC(N)CC2)c2nc(C(=O)O)c(CCCOc3ccc(C#CCN(C)C)cc3F)s2)nnc1Nc1nc2ccccc2s1 (stereo not drawn) [Example 171, 2-[[5-(4-Amino-1-piperidyl)-4-hydroxy-pentyl]-[6-(1,3-benzothiazol-2-ylamino)-5-methyl-pyridazin-3-yl]amino]-5-[3-[4-[3-(dimethylamino)prop-1-ynyl]-2-fluoro-phenoxy]propyl]thiazole-4-carboxylic acid]
0.0078	0.0026	160	< 1	40.2	Cc1cc(N(CCCC(O)CN2CCNCC2)c2nc(C(=O)O)c(CCCOc3ccc(C#CCN(C)C)cc3F)s2)nnc1Nc1nc2ccccc2s1 (stereo not drawn) [Example 172, 2-[[6-(1,3-Benzothiazol-2-ylamino)-5-methyl-pyridazin-3-yl]-(4-hydroxy-5-piperazin-1-yl-pentyl)amino]-5-[3-[4-[3-(dimethylamino)prop-1-ynyl]-2-fluoro-phenoxy]propyl]thiazole-4-carboxylic acid]
